{
  "source": "ChEMBL document CHEMBL1759914",
  "about": "“The solvolysis of topotecan in alcohols and acetic anhydride” (Bioorg Med Chem Lett, 2011)",
  "key": {"KB": {"tested_on": "KB", "assay": "Antitumor activity against human KB cells by WST-1 assay", "type": "functional, cell-based"}, "[1]": {"assay": "Antitumor activity against mouse C26 cells by WST-1 assay", "type": "functional, cell-based"}, "HepG2": {"tested_on": "HepG2", "assay": "Antitumor activity against human HepG2 cells by WST-1 assay", "type": "functional, cell-based"}, "[2]": {"assay": "Ratio of compound IC50 to 10-hydroxycamptothecin IC50 for mouse C26 cells", "type": "functional"}},
  "data": [
    {"compound": "CCOCc1c(O)ccc2nc3c(cc12)Cn1c-3cc2c(c1=O)COC(=O)[C@]2(O)CC", "values": [
      {"measurement": "IC50", "setting": "KB", "value": 19.7, "unit": "µM"},
      {"measurement": "IC50", "setting": "[1]", "value": 29.1, "unit": "µM"},
      {"measurement": "IC50", "setting": "HepG2", "value": 3.91, "unit": "µM"}
    ]},
    {"compound": "CC[C@@]1(O)C(=O)OCc2c1cc1n(c2=O)Cc2cc3c(COC(C)=O)c(OC(C)=O)ccc3nc2-1", "values": [
      {"measurement": "IC50", "setting": "KB", "value": 0.794, "unit": "µM"},
      {"measurement": "Ratio IC50", "setting": "[2]", "value": 3},
      {"measurement": "IC50", "setting": "[1]", "value": 0.157, "unit": "µM"},
      {"measurement": "IC50", "setting": "HepG2", "value": 1, "unit": "µM"}
    ]},
    {"compound": "CC[C@@]1(O)C(=O)OCc2c1cc1n(c2=O)Cc2cc3c(COC)c(O)ccc3nc2-1", "values": [
      {"measurement": "IC50", "setting": "KB", "value": 25.4, "unit": "µM"},
      {"measurement": "IC50", "setting": "[1]", "value": 101, "unit": "µM"},
      {"measurement": "IC50", "setting": "HepG2", "value": 92.1, "unit": "µM"}
    ]},
    {"compound": "CC[C@@]1(O)C(=O)OCc2c1cc1n(c2=O)Cc2cc3c(COC(C)C)c(O)ccc3nc2-1", "values": [
      {"measurement": "IC50", "setting": "KB", "value": 7.25, "unit": "µM"},
      {"measurement": "IC50", "setting": "[1]", "value": 3.88, "unit": "µM"},
      {"measurement": "IC50", "setting": "HepG2", "value": 13.5, "unit": "µM"}
    ]},
    {"compound": "CC[C@@]1(O)C(=O)OCc2c1cc1n(c2=O)Cc2cc3c(COC(C)(C)C)c(O)ccc3nc2-1", "values": [
      {"measurement": "IC50", "setting": "KB", "value": 1.38, "unit": "µM"},
      {"measurement": "IC50", "setting": "[1]", "value": 0.273, "unit": "µM"},
      {"measurement": "IC50", "setting": "HepG2", "value": 0.802, "unit": "µM"}
    ]},
    {"compound": "CC[C@@]1(OC(C)=O)C(=O)OCc2c1cc1n(c2=O)Cc2cc3c(COC(C)=O)c(OC(C)=O)ccc3nc2-1", "values": [
      {"measurement": "IC50", "setting": "KB", "value": 1.15, "unit": "µM"},
      {"measurement": "IC50", "setting": "[1]", "value": 0.424, "unit": "µM"},
      {"measurement": "IC50", "setting": "HepG2", "value": 1.31, "unit": "µM"}
    ]},
    {"compound": "CC[C@@]1(O)C(=O)OCc2c1cc1n(c2=O)Cc2cc3cc(O)ccc3nc2-1", "note": "[HYDROXYCAMPTOTHECIN]", "values": [
      {"measurement": "IC50", "setting": "KB", "value": 0.829, "unit": "µM"},
      {"measurement": "IC50", "setting": "[1]", "value": 0.496, "unit": "µM"},
      {"measurement": "IC50", "setting": "HepG2", "value": 0.981, "unit": "µM"}
    ]}
  ]
}
